From US20100056526A1, “HETEROMONOCYCLIC COMPOUND AND USE THEREOF” (Takeda Pharmaceutical Company Limited, priority 2006, published 2010) come the findings set out here.

The target of test [1] is T1, human AT1 receptor (Homo sapiens, UniProt P30556).
T1 construct: expressed in transfected cells; host or cells: CHO-K1
T1 sequence (P30556 1-359): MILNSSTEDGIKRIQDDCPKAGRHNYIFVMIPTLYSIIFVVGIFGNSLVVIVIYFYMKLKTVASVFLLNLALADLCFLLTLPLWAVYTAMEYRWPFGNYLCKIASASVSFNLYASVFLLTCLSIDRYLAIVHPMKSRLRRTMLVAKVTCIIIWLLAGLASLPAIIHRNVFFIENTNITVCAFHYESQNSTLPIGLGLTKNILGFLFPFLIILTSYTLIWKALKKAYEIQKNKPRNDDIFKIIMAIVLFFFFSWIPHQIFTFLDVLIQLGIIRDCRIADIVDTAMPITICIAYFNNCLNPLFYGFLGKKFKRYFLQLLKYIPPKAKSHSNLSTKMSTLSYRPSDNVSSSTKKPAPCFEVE
Description: Binding assay using human AT1 receptor-expressing CHO-K1 cell membrane fraction ([125I]-angiotensin II). Particulars: 22.5 pM [125I]-angiotensin II, 9 μg AT1 membrane, 1 hr room temperature; read-out: AT1 receptor binding inhibitory action (IC50 (nM)). The essentials:
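CHO-K1 membranes stably expressing AT1 (9 μg) incubated with 22.5 pM [125I]-angiotensin II and compound in 50 mM Tris pH 7.4, 10 mM MgCl2, with or without 0.3 mg/mL fatty acid-free BSA, 1 hr at room temperature. Bound radioactivity counted after GF/C filtration; nonspecific binding with 1 μM CV-11974; IC50 calculated.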

The target in test [2] is T2, PPARγ (Homo sapiens, UniProt P37231).
T2 construct: expressed in transfected cells; host or cells: CHO-K1
T2 sequence (P37231 1-477 isoform P37231-2): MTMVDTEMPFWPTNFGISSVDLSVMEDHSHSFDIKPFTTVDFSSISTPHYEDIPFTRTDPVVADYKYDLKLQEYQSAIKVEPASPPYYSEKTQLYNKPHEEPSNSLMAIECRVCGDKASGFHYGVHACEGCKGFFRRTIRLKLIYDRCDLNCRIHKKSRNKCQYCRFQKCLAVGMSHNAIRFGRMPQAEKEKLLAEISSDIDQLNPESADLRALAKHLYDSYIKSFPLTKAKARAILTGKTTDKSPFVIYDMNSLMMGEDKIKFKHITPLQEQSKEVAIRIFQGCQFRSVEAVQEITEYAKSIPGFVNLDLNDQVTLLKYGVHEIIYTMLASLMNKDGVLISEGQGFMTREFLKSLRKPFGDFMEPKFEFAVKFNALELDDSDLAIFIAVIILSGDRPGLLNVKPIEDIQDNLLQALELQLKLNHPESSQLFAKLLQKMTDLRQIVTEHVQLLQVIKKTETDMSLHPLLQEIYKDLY
T2 sequence (P19793 1-462 partner): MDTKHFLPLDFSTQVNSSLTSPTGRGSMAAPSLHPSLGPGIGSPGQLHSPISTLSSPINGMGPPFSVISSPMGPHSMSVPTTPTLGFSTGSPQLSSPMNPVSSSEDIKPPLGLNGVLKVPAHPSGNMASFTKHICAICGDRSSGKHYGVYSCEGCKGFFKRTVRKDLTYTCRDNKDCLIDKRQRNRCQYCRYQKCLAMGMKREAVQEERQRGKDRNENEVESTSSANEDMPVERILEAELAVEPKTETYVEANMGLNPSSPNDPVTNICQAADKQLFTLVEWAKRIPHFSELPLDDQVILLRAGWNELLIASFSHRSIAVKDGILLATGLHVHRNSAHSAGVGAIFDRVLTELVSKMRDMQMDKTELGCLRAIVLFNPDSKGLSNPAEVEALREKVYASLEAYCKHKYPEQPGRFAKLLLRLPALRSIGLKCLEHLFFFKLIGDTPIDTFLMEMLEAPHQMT
Description: Evaluation of PPARγ activating action (luciferase reporter in PPARγ:RXRα:4ERPP/CHO-K1 cells). It counts as cell-based. The following applies: CHO-K1, 24 h; test compound 10^−6 M; luciferase activity relative to control compound X (1 μM) = 100%, non-administration group = 0%; read-out: PPARγ activating action (activation % (10^−6 M)). The essentials: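 CHO-K1 cells stably carrying PPARγ, RXRα and a 4ERPP luciferase reporter were treated with compound for 1 day at 37 °C in F12 medium with 0.1% fatty acid-free BSA. Luciferase activity was read and scaled between no compound (0%) and reference agonist compound X at 1 μM (100%).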
On the technique in general: In a reporter assay the amount or activity of a reporter protein is the signal.

With `CCCCc1nc(C)n(CC23CC4CC(CC(C4)C2)C3)c(=O)c1Cc1ccc(-c2ccccc2-c2noc(=O)[nH]2)cc1` [Example 42, 3-(1-adamantylmethyl)-6-butyl-2-methyl-5-{[2′-(5-oxo-4,5-dihydro-1,2,4-oxadiazol-3-yl)biphenyl-4-yl]methyl}pyrimidin-4(3H)-one], in test [1], the IC50 came to 1.5 nM. Besides, the activation at 1 µM in test [2] is 61.2%.
In the same order, the values of `CCCCc1nc(OC)n(Cc2ccccc2)c(=O)c1Cc1ccc(-c2ccccc2-c2noc(=O)[nH]2)cc1` [Example 107, 3-benzyl-6-butyl-2-methoxy-5-{[2′-(5-oxo-4,5-dihydro-1,2,4-oxadiazol-3-yl)biphenyl-4-yl]methyl}pyrimidin-4(3H)-one] are 2 nM and 60%.
On the same counts, the results for `CCCCc1nc(C)n(Cc2ccccn2)c(=O)c1Cc1ccc(-c2ccccc2-c2noc(=O)[nH]2)cc1` [Example 50, 6-butyl-2-methyl-5-{[2′-(5-oxo-4,5-dihydro-1,2,4-oxadiazol-3-yl)biphenyl-4-yl]methyl}-3-(pyridin-2-ylmethyl)pyrimidin-4(3H)-one] are 1.7 nM and 34.3%.
On the same counts, the results for `CCCc1nc(CC)c(CN2CCOCC2)c(=O)n1Cc1ccc(-c2ccccc2-c2noc(=O)[nH]2)cc1` [Example 455, 6-ethyl-5-(morpholin-4-ylmethyl)-3-{[2′-(5-oxo-4,5-dihydro-1,2,4-oxadiazol-3-yl)biphenyl-4-yl]methyl}-2-propylpyrimidin-4(3H)-one] are 2 nM and 16%.
For the compound `CCCc1nc(CC)n(-c2ccc(OC(C)(C)C(C)O)cc2)c(=O)c1Cc1ccc(-c2ccccc2-c2noc(=O)[nH]2)cc1` (centres unmarked) [Example 444, 2-ethyl-3-[4-(2-hydroxy-1,1-dimethylpropoxy)phenyl]-5-{[2′-(5-oxo-4,5-dihydro-1,2,4-oxadiazol-3-yl)biphenyl-4-yl]methyl}-6-propylpyrimidin-4(3H)-one], the IC50 in test [1] amounted to 1.3 nM. Moreover, the activation at 1 µM in test [2] came out at 55.4%.
On the same counts, the results for `CCCc1nc(C)n(-c2ccc(OC3CC3)cc2)c(=O)c1Cc1ccc(-c2ccccc2-c2noc(=O)[nH]2)cc1` [Example 265, 3-[4-(cyclopropyloxy)phenyl]-2-methyl-5-{[2′-(5-oxo-4,5-dihydro-1,2,4-oxadiazol-3-yl)biphenyl-4-yl]methyl}-6-propylpyrimidin-4(3H)-one] are 1.7 nM and 27.8%.
In the same order, the values of `CCCOc1ccc(-c2c(CC)nc(CCC)n(Cc3ccc(-c4ccccc4-c4noc(=O)[nH]4)cc3)c2=O)cc1` [Example 459, 6-ethyl-3-{[2′-(5-oxo-4,5-dihydro-1,2,4-oxadiazol-3-yl)biphenyl-4-yl]methyl}-5-(4-propoxyphenyl)-2-propylpyrimidin-4(3H)-one] are 2.1 nM and 40%.
On the same counts, the results for `CCCc1nc(CC)n(-c2ccc(OC(C)(C)C(C)=O)cc2)c(=O)c1Cc1ccc(-c2ccccc2-c2noc(=O)[nH]2)cc1` [Example 445, 3-[4-(1,1-dimethyl-2-oxopropoxy)phenyl]-2-ethyl-5-{[2′-(5-oxo-4,5-dihydro-1,2,4-oxadiazol-3-yl)biphenyl-4-yl]methyl}-6-propylpyrimidin-4 (3H)-one] are 1.2 nM and 62.9%.
As to `CCCCc1nc(C2CC2)n(-c2ccc3c(c2)CCO3)c(=O)c1Cc1ccc(-c2ccccc2-c2noc(=O)[nH]2)cc1` [Example 112, 6-butyl-2-cyclopropyl-3-(2,3-dihydro-1-benzofuran-5-yl)-5-{[2′-(5-oxo-4,5-dihydro-1,2,4-oxadiazol-3-yl)biphenyl-4-yl]methyl}pyrimidin-4(3H)-one], the IC50 in test [1] was determined as 1.7 nM. Besides, the activation at 1 µM in test [2] was found to be 52.1%.
With `CCCc1nc(C)n(C=C(C)C)c(=O)c1Cc1ccc(-c2ccccc2-c2noc(=O)[nH]2)cc1` [Example 323, 2-methyl-3-(2-methylprop-1-en-1-yl)-5-{[2′-(5-oxo-4,5-dihydro-1,2,4-oxadiazol-3-yl)biphenyl-4-yl]methyl}-6-propylpyrimidin-4(3H)-one], the concentration for half-maximal inhibition (IC50) in test [1] came out at 2.1 nM. Also, in test [2], the activation at 1 µM was 20%.

Broadly, the IC50 is the point on the concentration scale where inhibition reaches its midpoint.
